Earlier results in publication PMC10104807, “Modulation of tau tubulin kinases (TTBK1 and TTBK2) impacts ciliogenesis” (Scientific Reports, 2023).

How the values were obtained:
[1] = tested on: 403 wild-type (WT) human kinases; set-up: method as in PMID 33944571; conditions: 1 μM; cited from earlier work
[2] = tested on: tau phosphorylation; conditions: cited from earlier work
[3] = set-up: method as in PMID 34978799; conditions: cited from earlier work

## CC[C@](C)(O)C#Cc1cc2c(cn1)cnn2-c1ccnc(N)n1 [BGN18]
[1]
  number of kinases bound with PoC < 10 in DiscoverX scanMAX panel: sixteen

## CC[C@](C)(O)C#Cc1cc2c(ccn2-c2cc(OC)nc(N)n2)cn1 [BGN31]
[2]
  tau phosphorylation at multiple disease-relevant sites in vivo: significantly lowered
[1]
  number of kinases bound with PoC < 10 in DiscoverX scanMAX panel: eight

## Clc1ccc(-c2ccc(Nc3ncnc4[nH]ccc34)cc2)cc1 [compound 29]
[3]
  brain penetration: good brain penetration
